The results in this text go back to patent US10214519B2, “Phosphatidylinositol 3-kinase inhibitors” (Gilead Sciences, Inc., priority 2016, dated 2019).

For orientation: IC50 means the concentration at which inhibition is half-maximal. Low values mean inhibition by little substance, high ones a need for much substance.

For the test, the target named is PI3Kβ (Homo sapiens (Human), UniProt P42338). The experiment in a line: PI3K isoform TR-FRET enzymatic assay (PI3Kβ). Conditions: 2× Km ATP, 30 minutes at 25° C. The class given is biochemical. Put shortly: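 IC50 came from four-parameter dose-response fits, normalized between DMSO and 1 μM wortmannin controls. The read-out was TR-FRET (615/665 nm) of PIP3 displacing fluorescent PIP3 from Europium GRP-1 after 10 mM EDTA termination. Compounds were incubated with purified heterodimeric PI3Kβ for 30 min at 25° C.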
Sequence of PI3Kβ (P42338 whole entry, canonical isoform): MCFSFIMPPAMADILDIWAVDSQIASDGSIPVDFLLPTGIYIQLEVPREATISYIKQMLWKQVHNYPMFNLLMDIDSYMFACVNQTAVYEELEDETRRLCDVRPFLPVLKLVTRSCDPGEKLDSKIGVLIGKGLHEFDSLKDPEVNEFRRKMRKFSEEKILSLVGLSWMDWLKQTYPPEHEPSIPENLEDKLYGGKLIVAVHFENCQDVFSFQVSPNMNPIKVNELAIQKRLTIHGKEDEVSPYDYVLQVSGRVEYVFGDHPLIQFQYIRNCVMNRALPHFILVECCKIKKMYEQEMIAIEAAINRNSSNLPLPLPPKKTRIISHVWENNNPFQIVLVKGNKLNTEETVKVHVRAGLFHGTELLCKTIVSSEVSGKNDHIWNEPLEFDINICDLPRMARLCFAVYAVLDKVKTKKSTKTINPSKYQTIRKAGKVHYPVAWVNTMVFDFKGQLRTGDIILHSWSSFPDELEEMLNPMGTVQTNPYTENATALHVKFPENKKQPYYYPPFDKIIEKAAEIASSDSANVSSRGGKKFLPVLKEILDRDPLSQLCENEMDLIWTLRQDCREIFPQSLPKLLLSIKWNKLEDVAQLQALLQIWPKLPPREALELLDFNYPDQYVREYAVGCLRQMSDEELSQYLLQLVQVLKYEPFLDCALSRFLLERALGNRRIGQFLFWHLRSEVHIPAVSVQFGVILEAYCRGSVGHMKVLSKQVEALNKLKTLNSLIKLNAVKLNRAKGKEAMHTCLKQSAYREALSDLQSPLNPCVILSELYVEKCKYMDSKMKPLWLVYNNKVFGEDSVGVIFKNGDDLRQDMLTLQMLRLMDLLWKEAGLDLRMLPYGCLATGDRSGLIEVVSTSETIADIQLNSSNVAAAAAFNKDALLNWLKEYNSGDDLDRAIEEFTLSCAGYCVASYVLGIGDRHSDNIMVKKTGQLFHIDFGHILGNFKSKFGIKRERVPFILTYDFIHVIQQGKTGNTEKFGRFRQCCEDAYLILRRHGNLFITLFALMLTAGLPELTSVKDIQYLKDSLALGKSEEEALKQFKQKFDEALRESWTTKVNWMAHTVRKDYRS
Sequence of PI3Kβ (P27986 whole entry partner, canonical isoform): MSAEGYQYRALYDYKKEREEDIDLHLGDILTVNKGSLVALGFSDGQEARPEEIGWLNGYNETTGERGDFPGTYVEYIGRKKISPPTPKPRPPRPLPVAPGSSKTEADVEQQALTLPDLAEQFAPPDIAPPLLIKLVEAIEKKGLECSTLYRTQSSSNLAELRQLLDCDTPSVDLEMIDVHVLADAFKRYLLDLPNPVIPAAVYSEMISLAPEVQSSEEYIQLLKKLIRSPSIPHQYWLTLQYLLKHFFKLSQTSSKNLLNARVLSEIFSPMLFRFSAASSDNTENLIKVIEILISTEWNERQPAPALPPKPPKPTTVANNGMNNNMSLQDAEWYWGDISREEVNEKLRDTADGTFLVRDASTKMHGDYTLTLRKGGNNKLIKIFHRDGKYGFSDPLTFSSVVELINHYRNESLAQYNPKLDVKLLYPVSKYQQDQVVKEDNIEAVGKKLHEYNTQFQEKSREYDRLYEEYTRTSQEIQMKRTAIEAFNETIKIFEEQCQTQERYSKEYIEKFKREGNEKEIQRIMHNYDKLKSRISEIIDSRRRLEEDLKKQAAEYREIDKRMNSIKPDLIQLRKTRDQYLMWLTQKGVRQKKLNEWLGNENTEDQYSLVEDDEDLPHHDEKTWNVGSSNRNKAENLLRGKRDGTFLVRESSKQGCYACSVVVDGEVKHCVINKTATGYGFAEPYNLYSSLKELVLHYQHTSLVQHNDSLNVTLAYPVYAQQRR

In the case of `Cc1nnc(-c2cc(N3CCOCC3)cc3c2nc(C)n3-c2c(Cl)cnc3c(Cl)cccc23)[nH]1` (atropisomer, axis not shown) [Compound 366, 4-(1-(3,8-dichloroquinolin-4-yl)-2-methyl-4-(5-methyl-4H-1,2,4-triazol-3-yl)-1H-benzo[d]imidazol-6-yl)morpholine], the IC50 worked out at 17 nM.
The same measure for `Clc1cccc2c(-n3c(-c4ccn[nH]4)nc4c(-c5nnc[nH]5)cc(N5CCOCC5)cc43)ccnc12` [Example 117, 4-[3-(8-chloroquinolin-4-yl)-2-(1H-pyrazol-5-yl)-7-(4H-1,2,4-triazol-3-yl)benzimidazol-5-yl]morpholine]: 15 nM; for `Cc1nc2c(-c3cnccn3)cc(N3CCOCC3)cc2n1-c1ccnc2c(Cl)cccc12` [Example 246, 4-[3-(8-chloroquinolin-4-yl)-2-methyl-7-pyrazin-2-ylbenzimidazol-5-yl]morpholine]: 1100 nM.
`Clc1cccc2c(-n3c(C4CC4)nc4c(-c5ncco5)cc(N5CCOCC5)cc43)ccnc12` [Example 228, 4-[3-(8-chloroquinolin-4-yl)-2-cyclopropyl-7-(1,3-oxazol-2-yl)benzimidazol-5-yl]morpholine] gave a half-maximal inhibitory concentration (IC50) of 10 nM. This IC50 lies about 110-fold lower than the previous one.
On to `Cc1ccc(F)c2c(-n3c(C)nc4c(-c5nnc[nH]5)cc(N5CCOCC5)cc43)ccnc12` [Example 124, 4-[3-(5-fluoro-8-methylquinolin-4-yl)-2-methyl-7-(4H-1,2,4-triazol-3-yl)benzimidazol-5-yl]morpholine], for which half-maximal inhibition (IC50) was put at 9 nM. This IC50 and that of the compound before are within 1.5-fold of each other.
`Cc1nc2c(-c3ccc(Cl)s3)cc(N3CCOCC3)cc2n1-c1ccnc2c(Cl)cccc12` [Example 267, 4-[3-(8-chloroquinolin-4-yl)-7-(5-chlorothiophen-2-yl)-2-methylbenzimidazol-5-yl]morpholine] showed an IC50 of 2100 nM. This IC50 lies about 230-fold higher than the previous one.
For the compound `Cc1cc(-n2c(C)nc3c(-c4cnc[nH]4)cc(N4CCOCC4)cc32)c2c(Cl)ccc(Cl)c2n1` [Example 333, 4-[3-(5,8-dichloro-2-methylquinolin-4-yl)-7-(1H-imidazol-5-yl)-2-methylbenzimidazol-5-yl]morpholine], half-maximal inhibition (IC50) was put at 9 nM. Against the preceding compound, the IC50 is about 230-fold lower.
`Fc1cccc2c(-n3c(C4CC4)nc4c(-c5ncco5)cc(N5CCOCC5)cc43)ccnc12` [Example 214, 4-[2-cyclopropyl-3-(8-fluoroquinolin-4-yl)-7-(1,3-oxazol-2-yl)benzimidazol-5-yl]morpholine] yielded an IC50 of 56 nM.
For `Fc1cccc2c(-n3cnc4c(-c5nnc[nH]5)cc(N5CCOCC5)cc43)ccnc12` [Example 95, 4-[3-(8-fluoroquinolin-4-yl)-7-(4H-1,2,4-triazol-3-yl)benzimidazol-5-yl]morpholine], the IC50 is 6 nM. Compared with the last compound, the IC50 is about 9.3-fold lower.
Regarding `Cc1nc2c(-c3nnc[nH]3)cc(N3CCOC[C@@H]3C)cc2n1-c1ccnc2c(Cl)cccc12` [Example 99, (3S)-4-[3-(8-chloroquinolin-4-yl)-2-methyl-7-(4H-1,2,4-triazol-3-yl)benzimidazol-5-yl]-3-methylmorpholine], the IC50 is 33 nM.
For `Cc1nnc(-c2cc(N3CCOCC3)cc3c2nc(C)n3-c2c(F)cnc3ccccc23)[nH]1` [Example 154, 4-(1-(3-fluoroquinolin-4-yl)-2-methyl-4-(5-methyl-4H-1,2,4-triazol-3-yl)-1H-benzo[d]imidazol-6-yl)morpholine], the midpoint of inhibition, the IC50, lay at 2200 nM.
The compound `Cc1cc(-n2c(C)nc3c(-c4nc(C)n[nH]4)cc(N4CCOCC4)cc32)c2cccc(C(F)(F)F)c2n1` [Example 77, 4-[2-methyl-7-(3-methyl-1H-1,2,4-triazol-5-yl)-3-[2-methyl-8-(trifluoromethyl)quinolin-4-yl]benzimidazol-5-yl]morpholine] yielded an IC50 of 97 nM.
The same measure for `Cc1nc2c(-c3nnc(N)o3)cc(N3CCOCC3)cc2n1-c1ccnc2cc(F)ccc12` [Example 163, 5-(1-(7-fluoroquinolin-4-yl)-2-methyl-6-morpholino-1H-benzo[d]imidazol-4-yl)-1,3,4-oxadiazol-2-amine]: 630 nM; for `CCc1nc2c(-c3nnc(Cl)[nH]3)cc(N3CCOCC3)cc2n1-c1ccnc2c(F)ccc(F)c12` [Example 179, 4-[7-(5-chloro-4H-1,2,4-triazol-3-yl)-3-(5,8-difluoroquinolin-4-yl)-2-ethylbenzimidazol-5-yl]morpholine]: 44 nM; for `Cc1cnc2ccccc2c1-n1c(C)nc2c(-c3nnc[nH]3)cc(N3CCOCC3)cc21` [Example 65, 4-[2-methyl-3-(3-methylquinolin-4-yl)-7-(4H-1,2,4-triazol-3-yl)benzimidazol-5-yl]morpholine]: 24 nM.
The compound `Cc1nc2c(-c3nnc[nH]3)cc(N3CCOCC3)cc2n1-c1ccnc2c(F)cccc12` [Example 140, 4-[3-(8-fluoroquinolin-4-yl)-2-methyl-7-(4H-1,2,4-triazol-3-yl)benzimidazol-5-yl]morpholine] registered an IC50 of 13 nM. Against the preceding compound, the IC50 is about 1.8-fold lower.
`Cc1c[nH]c(-c2cc(N3CCOCC3)cc3c2nc(C)n3-c2ccnc3c(Cl)cccc23)n1` [Example 176, 4-[3-(8-chloroquinolin-4-yl)-2-methyl-7-(4-methyl-1H-imidazol-2-yl)benzimidazol-5-yl]morpholine]: half-maximal inhibition (IC50) was put at 510 nM.
In turn, `CCc1nc2c(-c3ncco3)cc(N3CCOCC3)cc2n1-c1ccnc2c(F)ccc(F)c12` [Example 217, 4-[3-(5,8-difluoroquinolin-4-yl)-2-ethyl-7-(1,3-oxazol-2-yl)benzimidazol-5-yl]morpholine] returned an IC50 of 9 nM.
The same measure for `Cc1nc2c(-c3nnc[nH]3)cc(N3CCOCC3)cc2n1-c1ccnc2c(Cl)cccc12` [Example 101, 4-[3-(8-chloroquinolin-4-yl)-2-methyl-7-(4H-1,2,4-triazol-3-yl)benzimidazol-5-yl]morpholine]: 7 nM.
Regarding `Cc1nnc(-c2cc(N3CCOCC3)cc3c2nc(C)n3-c2cc(-c3cscn3)nc3ccccc23)[nH]1` [Example 104, 4-(2-methyl-4-(5-methyl-4H-1,2,4-triazol-3-yl)-1-(2-(thiazol-4-yl)quinolin-4-yl)-1H-benzo[d]imidazol-6-yl)morpholine], the midpoint of inhibition, the IC50, lay at 84 nM. Against the preceding compound, the IC50 is about 12-fold higher.
`Cc1csc(-c2cc(N3CCOCC3)cc3c2nc(C2CC2)n3-c2ccnc3c(F)ccc(F)c23)n1` [Example 237, 4-[2-cyclopropyl-3-(5,8-difluoroquinolin-4-yl)-7-(4-methyl-1,3-thiazol-2-yl)benzimidazol-5-yl]morpholine] gave an IC50 of 50 nM. Against the preceding compound, the IC50 is about 1.7-fold lower.
Compound `Fc1ccc2c(-n3cnc4c(-c5nnc[nH]5)cc(N5CCOCC5)cc43)ccnc2c1Cl` [Example 29, 4-(1-(8-chloro-7-fluoroquinolin-4-yl)-4-(4H-1,2,4-triazol-3-yl)-1H-benzo[d]imidazol-6-yl)morpholine] came in with an IC50 of 7 nM.
As for `Cc1nc2c(-c3cnc(Cl)[nH]3)cc(N3CCOCC3)cc2n1-c1ccnc2cc(F)ccc12` [Example 293, 4-[7-(2-chloro-1H-imidazol-5-yl)-3-(7-fluoroquinolin-4-yl)-2-methylbenzimidazol-5-yl]morpholine], the figure is 38 nM.
The same measure for `Cc1nc2c(-c3ccc(C#N)s3)cc(N3CCOCC3)cc2n1-c1ccnc2c(Cl)cccc12` [Example 273, 5-[1-(8-chloroquinolin-4-yl)-2-methyl-6-morpholin-4-ylbenzimidazol-4-yl]thiophene-2-carbonitrile]: 2600 nM.
Regarding `CCCc1nc2c(-c3nnc[nH]3)cc(N3CCOCC3)cc2n1-c1ccnc2c(F)cccc12` (atropisomer, axis not shown) [Compound 354, 4-[3-(8-fluoroquinolin-4-yl)-2-propyl-7-(4H-1,2,4-triazol-3-yl)benzimidazol-5-yl]morpholine], the IC50 worked out at 8 nM.
Regarding `CC1(c2nc3c(-c4nnc[nH]4)cc(N4CCOCC4)cc3n2-c2ccnc3c(Cl)cccc23)CC1` [Example 4, 4-(1-(8-chloroquinolin-4-yl)-2-(1-methylcyclopropyl)-4-(4H-1,2,4-triazol-3-yl)-1H-benzo[d]imidazol-6-yl)morpholine], the IC50 worked out at 28 nM. Compared with the last compound, the IC50 is about 3.5-fold higher.
As for `CCc1nc2c(-c3cnc(Cl)[nH]3)cc(N3CCOCC3)cc2n1-c1ccnc2c(F)ccc(F)c12` (atropisomer, axis not shown) [Compound 346, 4-[7-(2-chloro-1H-imidazol-5-yl)-3-(5,8-difluoroquinolin-4-yl)-2-ethylbenzimidazol-5-yl]morpholine], the figure is 10000 nM.
`Clc1cccc2c(-n3c(-c4cccnc4)nc4c(-c5nnc[nH]5)cc(N5CCOCC5)cc43)ccnc12` [Example 10, 4-(1-(8-chloroquinolin-4-yl)-2-(pyridin-3-yl)-4-(4H-1,2,4-triazol-3-yl)-1H-benzo[d]imidazol-6-yl)morpholine] showed a half-inhibitory concentration (IC50) of 41 nM.
The compound `Cc1nc2c(-c3nnc(N)[nH]3)cc(N3CCOCC3)cc2n1-c1ccnc2c(F)ccc(F)c12` [Example 393, 5-(1-(5,8-difluoroquinolin-4-yl)-2-methyl-6-morpholino-1H-benzo[d]imidazol-4-yl)-4H-1,2,4-triazol-3-amine] yielded an IC50 of 21 nM.
In the case of `Cc1nc2c(-c3cnc[nH]3)cc(N3CCOCC3)cc2n1-c1ccnc2c(F)cccc12` [Example 208, 4-[3-(8-fluoroquinolin-4-yl)-7-(1H-imidazol-5-yl)-2-methylbenzimidazol-5-yl]morpholine], the half-inhibitory concentration (IC50) turned out to be 14 nM. This IC50 is about 1.5-fold lower than that of the compound before.
`Clc1cccc2c(-n3cnc4c(-c5ncco5)cc(N5CCOCC5)cc43)ccnc12` [Example 224, 4-[3-(8-chloroquinolin-4-yl)-7-(1,3-oxazol-2-yl)benzimidazol-5-yl]morpholine]: inhibition was half-maximal at 3 nM (IC50).
The same measure for `CC(C)Cc1nc2c(-c3nnc[nH]3)cc(N3CCOCC3)cc2n1-c1ccnc2c(Cl)cccc12` [Example 50, 4-(1-(8-chloroquinolin-4-yl)-2-isobutyl-4-(4H-1,2,4-triazol-3-yl)-1H-benzo[d]imidazol-6-yl)morpholine]: 16 nM; for `CC(C)Cc1nc2c(-c3ncco3)cc(N3CCOCC3)cc2n1-c1ccnc2c(F)ccc(F)c12` [Example 219, 4-[3-(5,8-difluoroquinolin-4-yl)-2-(2-methylpropyl)-7-(1,3-oxazol-2-yl)benzimidazol-5-yl]morpholine]: 8 nM.
